Experimental data: patent US20050049224A1, “Antimicrobial mixtures comprising iodopropynyl compounds and dimethyldithiocarbamate derivatives” (priority 2003, published 2005)

How the values were obtained:
Aspergillus niger = experiment: Fungal growth on acrylic/vinyl acrylic white house paint film on filter paper; format: cell-based; settings: 0.06% actives in paint, four weeks 28° C., scale 1 (no growth touching square) to 15 (totally covered), average of at least 3 runs
Method: In this example an acrylic, vinyl acrylic white house paint was used as the test medium.
Test formulations of the actives were prepared for each of the biocide blends to be tested (see tables 2b and 2c) by weighing the appropriate amounts of actives and adding them to the test paint so that in each test formulation the weight of the actives was 20% of the sample and 80% of the sample was paint. Each mixture was then stirred to achieve a homogeneous mixture. These test formulations were then incorporated into the test paint at the rate of 0.3% w/w, i.e. the final level of actives in the paint was 0.06%.
The test paints were then applied to a filter paper using a standard 3-mil drawdown bar to insure uniformity of the film. Samples were then dried at room temperature, and placed on agar contained in a Petri dish. The filter papers were then inoculated with a test inoculum of Aspergillus niger. Inoculated filter papers containing the test paints were placed in a constant temperature (28° C.) fungal incubator for four weeks. At the end of the incubation, fungal growth on each test paint was measured and recorded.
Each test blend was run at least 3 times and each result represents the average of the runs.

[1] = tested on: Aspergillus niger (ATCC 6275); experiment: Minimum Inhibitory Concentration (MIC) by spiral gradient endpoint plating, with Kull synergistic index; format: cell-based
Method: Spores were removed from the Aspergillus niger slant by adding a small amount of phosphate buffer pH 7.0 (Thomas Scientific phosphate buffer & magnesium chloride, Lot # 023-0703) and scraping with a sterile nichrome wire loop. This process was repeated twice. Loosened spores were removed from the slant by aseptically pouring them into a sterile bottle containing 30 ml. of phosphate buffer and a volume of roughly 40 ml. of 6-mm, borosilicate glass beads. The bead bottle was shaken to disperse the spores and additional buffer was added to a final volume of 50 ml. Spore density was adjusted in distilled water blanks to that of a 0.5. McFarland nephelometer standard.
With the aid of the SGE Software the proper aqueous dilutions of each biocide or test blend were prepared and adjusted to a final volume of 10 ml. Then, 250 micro-liters of each biocide mixture was processed by the spiral plater.
The Autoplate 4000 mechanically applied mixtures of test fungicides to 150 MM malt agar plates using an exponential application gradient. Gradients of applied fungicides were allowed to completely diffuse into the surface of the agar (1 to 4 hours at room temperature 23° C.) before inoculating the plates with fungi. […]
Following incubation, visible growth of the test organism was observed on a portion of the radial streak and ended where the concentration of biocide was high enough to prevent growth. This growth endpoint was used by the SGE software to compute the exact MIC expressed as parts per million (PPM) of active fungicide. […]
Elisman, H. D. Sylwestrowicz and P. K. Mayer, in Applied Microbiology, 9:538 (1961) where: • Qa=the quantity of A used in a binary mixture that gives the desired effect. • QA=the quantity of A which when used alone gives the desired effect. • Qb=the quantity of B used in a binary mixture that gives the desired effect. • QB=the quantity of B which when used alone gives the desired effect.
The synergistic index (SI) for each mixture was determined by the equation SI=Qa/QA+Qb/QB.

[2] = tested on: Streptoverticillium reticulans ATCC 25607 (pink stain organism); experiment: ASTM E 1428-91 pink stain test of flexible PVC film; settings: Table 3d, IPBC/Thiram in PVC film, 1000 ppm total; two weeks 28° C.; 0 no stain, 1 trace <10%, 2 slight 10-30%, 3 moderate 30-50%, 4 heavy >50% coverage; average of triplicate
Method: In this example a PVC formulation for flexible vinyl film was used as the test medium.
Five blends were prepared by adding the appropriate amount of the biocide to separate vinyl film form formulations prepared according to Table 3a.
Difco malt agar was prepared using manufacturers directions. Sterilized agar (30 ML) was poured into sterile plastic 100 mm Petri dishes to provide a solidified agar layer sufficient to nourish the test organism for the duration of the test.
Following inoculation of the agar, a sterile forceps was used to place the test specimen, previously sterilized by a brief dip in boiling water, on the agar. Each test blend was run in triplicate and the result represents the average of the three. The specimen was gently pressed on the surface of the agar to insure good contact. The Petri dishes were covered and incubated for two weeks in a 28° C. incubator.
Following incubation, samples were lifted from the surface of the agar and both sides were examined against a white background for presence of pink staining.
Degree of staining reported was determined by the area of the sample stained rather than by intensity of the color. […]

Compound | Fungal Growth (Aspergillus niger; Table 2b, IPBC/Ziram) | Fungal Growth (Aspergillus niger; Table 2c, IPBC/Thiram) | QA (quantity of A which when used alone gives the desired effect) ([1]; MIC of IPBC alone (Table 1a)) | QA (quantity of A which when used alone gives the desired effect) ([1]; MIC of IPBC alone (Table 1b)) | Pink Stain Rating [2] | QB (quantity of B which when used alone gives the desired effect) ([1]; MIC of Thiram alone (Table 1b))
CCCCNC(=O)OCC#CI [IPBC, 3-iodo-2-propynyl butyl carbamate] | 7.8 fungus units | 2.8 fungus units | 1.08 ppm | 1.08 ppm |  | 
CN(C)C(=S)SSC(=S)N(C)C [Thiram, bis(dimethylthiocarbamoyl) disulfide] |  | 13.8 fungus units |  |  | 2.0 | 26.73 ppm
